Measured values: patent US20070043024A1, “Azacyclic compounds as inhibitors of sensory neurone specific channels” (priority 2003, published 2007)

Target: T1, human Nav1.8 (hNav1.8) ion channel (Homo sapiens, UniProt Q9Y5Y9)
T1 construct: expressed in transfected cells
Test: Inhibition of human Nav1.8 stably expressed in SH-SY-5Y cells (membrane potential dye fluorescence assay)
Format: cell-based
Details: not given
Procedure: Inhibition of Human Nav1.8 Stably Expressed in SH-SY-5Y Cells
A SH-SY-5Y neuroblastoma cell line stably expressing the human […] (hNav1.8) ion channel was constructed. This cell line has been used to develop a medium to high throughput assay for determining the ability of test compounds to inhibit membrane depolarisation mediated via the hNav1.8 channel.
SH-SY-5Y hNav1.8 are grown in adherent monolayer culture using 50:50 Ham's F-12/EMEM tissue culture medium supplemented with 15% (v/v) foetal bovine serum; 2 mM L-glutamine, 1% NEAA and 600 μg·ml^−1 Geneticin sulphate. Cells are removed from the tissue culture flask using trypsin/EDTA and re-plated into black walled, clear bottom 96-well assay plates at 50,000 cells·well^−1 24 hours prior to assay.
On the day of assay the cell assay plates are washed to remove cell culture medium using a sodium free assay buffer (145 mM tetramethyl ammonium chloride; 2 mM calcium chloride; 0.8 mM magnesium chloride hexahydrate; 10 mM HEPES; 10 mM glucose; 5 mM potassium chloride, pH 7.4). Fluorescent membrane potential dye solution (FLIPR™ membrane potential dye, Molecular Devices Corporation), containing 10 μM of a pyrethroid to prevent channel inactivation and 250 nM tetrodotoxin (TTX) to reduce interference from TTX-sensitive sodium channels present in the cell line. Test compound, initially dissolved in dimethyl sulfoxide but further diluted in sodium free buffer, is added to achieve the final test concentration range of 100 μM-0.05 μM.
Cell plates are incubated for 30 minutes at room temperature to allow equilibration of dye and test compound. Plates are then transferred to a fluorescence plate reader for fluorescence measurement using an excitation wavelength of 530 nm whilst measuring fluorescence emission at 565 nm. Baseline fluorescence levels are first determined before the addition of a sodium containing buffer (220 mM sodium chloride; 2 mM calcium chloride; 0.8 mM magnesium chloride hexahydrate; […]; 10 mM glucose; 5 mM potassium chloride. pH 7.4) to cause membrane depolarisation in those cells where channel block has not been effected (final sodium concentration=72.5 mM). Membrane depolarisation is registered by an increase in fluorescence emission at 565 nm.
The change in fluorescence seen in each test well upon the addition of sodium containing buffer is calculated relative to the baseline fluorescence for that well. This figure is then used for calculating the IC50 for each test compound.

T1 sequence (Q9Y5Y9 whole entry): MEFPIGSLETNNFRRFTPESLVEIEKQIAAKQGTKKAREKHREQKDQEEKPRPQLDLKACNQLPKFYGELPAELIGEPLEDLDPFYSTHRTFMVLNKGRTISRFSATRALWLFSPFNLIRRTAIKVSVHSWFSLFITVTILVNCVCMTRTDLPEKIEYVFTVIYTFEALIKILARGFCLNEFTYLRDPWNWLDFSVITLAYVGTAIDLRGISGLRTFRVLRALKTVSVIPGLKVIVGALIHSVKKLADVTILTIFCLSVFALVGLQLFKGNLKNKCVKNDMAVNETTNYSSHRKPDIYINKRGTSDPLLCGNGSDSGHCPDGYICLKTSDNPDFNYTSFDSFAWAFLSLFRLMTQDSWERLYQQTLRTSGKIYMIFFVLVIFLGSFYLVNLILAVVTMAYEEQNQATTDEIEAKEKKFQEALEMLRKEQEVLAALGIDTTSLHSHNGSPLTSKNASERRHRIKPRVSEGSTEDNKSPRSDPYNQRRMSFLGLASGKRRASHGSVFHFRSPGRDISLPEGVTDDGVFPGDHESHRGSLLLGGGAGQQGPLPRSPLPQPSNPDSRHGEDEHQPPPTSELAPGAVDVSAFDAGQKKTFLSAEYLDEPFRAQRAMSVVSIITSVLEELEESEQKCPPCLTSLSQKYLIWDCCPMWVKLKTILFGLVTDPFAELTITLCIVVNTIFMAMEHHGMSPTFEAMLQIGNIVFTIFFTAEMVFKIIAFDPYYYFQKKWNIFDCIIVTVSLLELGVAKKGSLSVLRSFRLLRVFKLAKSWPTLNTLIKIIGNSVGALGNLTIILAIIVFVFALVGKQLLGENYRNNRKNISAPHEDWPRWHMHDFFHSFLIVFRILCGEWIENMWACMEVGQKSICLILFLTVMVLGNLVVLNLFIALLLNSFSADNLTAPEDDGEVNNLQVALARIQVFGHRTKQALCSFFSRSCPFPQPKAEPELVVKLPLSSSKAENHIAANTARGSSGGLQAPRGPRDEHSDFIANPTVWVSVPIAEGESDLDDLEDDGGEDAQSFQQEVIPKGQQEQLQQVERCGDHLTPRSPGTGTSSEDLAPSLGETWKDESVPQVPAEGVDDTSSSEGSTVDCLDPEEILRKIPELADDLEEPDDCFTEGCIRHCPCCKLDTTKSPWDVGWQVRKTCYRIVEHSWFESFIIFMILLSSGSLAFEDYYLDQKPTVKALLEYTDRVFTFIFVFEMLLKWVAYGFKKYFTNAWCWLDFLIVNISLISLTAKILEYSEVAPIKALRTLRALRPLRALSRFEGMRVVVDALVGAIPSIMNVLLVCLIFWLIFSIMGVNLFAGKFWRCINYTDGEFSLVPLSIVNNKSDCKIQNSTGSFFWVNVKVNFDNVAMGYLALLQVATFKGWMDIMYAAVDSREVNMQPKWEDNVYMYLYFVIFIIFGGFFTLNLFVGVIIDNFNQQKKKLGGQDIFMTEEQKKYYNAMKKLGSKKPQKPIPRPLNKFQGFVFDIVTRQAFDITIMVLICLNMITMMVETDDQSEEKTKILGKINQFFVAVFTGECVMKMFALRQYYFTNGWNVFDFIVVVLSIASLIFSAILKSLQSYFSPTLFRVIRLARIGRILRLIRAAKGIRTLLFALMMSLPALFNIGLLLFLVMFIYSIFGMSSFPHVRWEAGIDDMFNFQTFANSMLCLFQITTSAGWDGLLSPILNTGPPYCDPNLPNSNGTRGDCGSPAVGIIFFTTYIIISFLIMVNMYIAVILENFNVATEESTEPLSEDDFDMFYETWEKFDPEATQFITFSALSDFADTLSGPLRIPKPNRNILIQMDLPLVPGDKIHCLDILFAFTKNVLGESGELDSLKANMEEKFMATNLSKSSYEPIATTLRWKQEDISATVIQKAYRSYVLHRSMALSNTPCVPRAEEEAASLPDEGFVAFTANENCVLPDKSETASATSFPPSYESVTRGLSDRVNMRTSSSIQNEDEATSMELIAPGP

Structure (SMILES)	IC50 [nM]
COc1cccc2c1CN(CC(=O)NCCSC(c1ccccc1)c1ccccc1)CC2 [Compound 96, N-(2-Benzhydrylsulfanyl-ethyl)-2-(8-methoxy-3,4-dihydro-1H-isoquinolin-2-yl)-acetamide]	1110
COc1cccc2c1CN(CC(=O)NCC[S+]([O-])C(c1ccccc1)c1ccccc1)CC2 (centres unmarked) [Compound 103, N-[2-(Diphenyl-methanesulfinyl)-ethyl]-2-(8-methoxy-3,4-dihydro-1H-isoquinolin-2-yl)-acetamide]	2250
O=C(CN1CCc2cccc(O)c2C1)N(c1ccccc1)c1ccc(O)cc1 [Compound 176, 2-(8-Hydroxy-3,4-dihydro-1H-isoquinolin-2-yl)-N-(4-hydroxy-phenyl)-N-phenyl-acetamide]	5950

Same assay, conditions: IC50, Table 1; SH-SY-5Y hNav1.8 cells, inhibition of membrane depolarisation, FLIPR membrane potential dye, 250 nM TTX, test concentration range 100 μM-0.05 μM

Structure (SMILES)	IC50 [nM]
O=C(CN1CCc2cccc(O)c2C1)N(Cc1ccccc1)c1ccccc1 [Example 25, N-Benzyl-2-(8-hydroxy-3,4-dihydro-1H-isoquinolin-2-yl)-N-phenyl-acetamide]	1070

Same assay, conditions: Table 1; SH-SY-5Y hNav1.8 cells, inhibition of membrane depolarisation, FLIPR membrane potential dye, 250 nM TTX, test concentration range 100 μM-0.05 μM; read-out: IC50

Structure (SMILES)	IC50 [nM]
Oc1cccc2c1CN(Cc1c(F)cccc1Cl)CC2 [Example 91, 2-(2-Chloro-6-fluoro-benzyl)-1,2,3,4-tetrahydro-isoquinolin-8-ol]	6910
COc1cccc2c1CN(CC(c1ccccc1)c1ccccc1)CC2 [Example 13, 2-(2,2-Diphenyl-ethyl)-8-methoxy-1,2,3,4-tetrahydro-isoquinoline]	1390
O=C(CN1CCc2cccc(O)c2C1)NC1c2ccccc2-c2ccccc21 [Example 26, N-(9H-fluoren-9-yl)-2-(8-hydroxy-3,4-dihydro-1H-isoquinolin-2-yl)acetamide]	670
Oc1cccc2c1CN(CCN(Cc1ccccc1)Cc1ccccc1)CC2 [Example 8]	410
O=C(CNC(c1ccccc1)c1ccccc1)N1CCc2ccccc2C1 [Example 31, 2-(Benzhydryl-amino)-1-(3,4-dihydro-1H-isoquinolin-2-yl)-ethanone]	1850
c1ccc(CN(CCN2CCc3ccccc3C2)Cc2ccccc2)cc1 [Example 47, Dibenzyl-[2-(3,4-dihydro-1H-isoquinolin-2-yl)-ethyl]-amine]	470
Oc1cccc2c1CN(Cc1cc(F)cc(F)c1)CC2 [Example 93, 2-(3,5-Difluoro-benzyl)-1,2,3,4-tetrahydro-isoquinolin-8-ol]	4720
COc1cccc2c1CN(C(=O)CNCC(c1ccccc1)c1ccccc1)CC2 [Example 39, 2-(2,2-Diphenyl-ethylamino)-1-(8-methoxy-3,4-dihydro-1H-isoquinolin-2-yl)-ethanone]	450
O=C(CN1CCc2cccc(O)c2C1)NC(c1ccccc1)c1ccccc1 [Example 24, N-Benzhydryl-2-(8-hydroxy-3,4-dihydro-1H-isoquinolin-2-yl)-acetamide]	1510

Same assay, conditions: Table 2 (compound numbers of the list in the description); SH-SY-5Y hNav1.8 cells, inhibition of membrane depolarisation, FLIPR membrane potential dye, 250 nM TTX, test concentration range 100 μM-0.05 μM; read-out: IC50

Structure (SMILES)	IC50 [nM]
C=CCOc1cccc2c1CN(CC(=O)NCCC(c1ccccc1)c1ccccc1)CC2 [Compound 97, 2-(8-Allyloxy-3,4-dihydro-1H-isoquinolin-2-yl)-N-(3,3-diphenyl-propyl)-acetamide]	2270
COc1cccc2c1CN(CC(=O)N1CCOc3ccccc31)CC2 [Compound 192, 1-(2,3-Dihydro-benzo[1,4]oxazin-4-yl)-2-(8-methoxy-3,4-dihydro-1H-isoquinolin-2-yl)-ethanone]	9060
O=C(CN1CCc2cccc(O)c2C1)NN(c1ccccc1)c1ccccc1 [Compound 167, (8-Hydroxy-3,4-dihydro-1H-isoquinolin-2-yl)-acetic acid N′,N′-diphenyl-hydrazide]	4510
COc1ccc(C2COc3ccccc3N2C(=O)CN2CCc3cccc(OC)c3C2)cc1OC (centres unmarked) [Compound 216, 1-[3-(3,4-Dimethoxy-phenyl)-2,3-dihydro-benzo[1,4]oxazin-4-yl]-2-(8-methoxy-3,4-dihydro-1H-isoquinolin-2-yl)-ethanone]	4310
COc1cccc2c1CN(CC(=O)Nc1ccccc1Oc1ccccc1)CC2 [Compound 184, 2-(8-Methoxy-3,4-dihydro-1H-isoquinolin-2-yl)-N-(2-phenoxy-phenyl)-acetamide]	10900
COc1cc2c(cc1OC)CN(CC(=O)NCCCC(c1ccccc1)c1ccccc1)CC2 [Compound 124, 2-(Dimethoxy-3,4-dihydro-1H-isoquinolin-2-yl)-N-(4,4-diphenyl-butyl)-acetamide]	590
Nc1cccc2c1CN(CC(=O)NCCC(c1ccccc1)c1ccccc1)C2 [Compound 99, 2-(4-Amino-1,3-dihydro-isoindol-2-yl)-N-(3,3-diphenyl-propyl)-acetamide]	2430
COc1cccc2c1CN(CC(=O)NCCC(c1ccccc1)c1ccccc1)C2 [Compound 88, N-(3,3-diphenyl-propyl)-2-(4-methoxy-1,3-dihydro-isoindol-2-yl)-acetamide]	2090
CS(=O)(=O)N(c1cccc2c1CN(CC(=O)N1c3ccccc3Oc3ccccc31)CC2)S(C)(=O)=O [Compound 197, N-Methanesulfonyl-N-[2-(2-oxo-2-phenoxazin-10-yl-ethyl)-1,2,3,4-tetrahydro-isoquinolin-8-yl]-methanesulfonamide]	3830
COc1cccc2c1CN(CC(=O)N(c1ccccc1O)c1ncccc1N)CC2 [Compound 188, N-(3-Amino-pyridin-2-yl)-N-(2-hydroxy-phenyl)-2-(8-methoxy-3,4-dihydro-1H-isoquinolin-2-yl)-acetamide]	12000
Nc1cccc2c1CN(CC(=O)NC(c1ccccc1)c1ccccc1)CC2 [Compound 108, 2-(8-Amino-3,4-dihydro-1H-isoquinolin-2-yl)-N-benzhydryl-acetamide]	3480
O=C(NCCN1CCc2cccnc2C1)N1c2ccccc2Oc2ccccc21 [Compound 201, Phenoxazine-10-carboxylic acid [2-(5,8-dihydro-6H-[1,7]naphthyridin-7-yl)-ethyl]-amide]	6090
COc1ccc2c(c1)CCCN(CC(=O)NC(c1ccccc1)c1ccccc1)C2 [Compound 83, N-benzhydryl-2-(7-methoxy-1,3,4,5-tetrahydro-benzo[c]azepin-2-yl)-acetamide]	830
O=C(CN1CCc2cccc(O)c2C1)N1c2ccccc2Sc2ccc(Cl)cc21 [Compound 141, 1-(2-Chloro-phenothiazin-10-yl)-2-(8-hydroxy-3,4-dihydro-1H-isoquinolin-2-yl)-ethanone]	1850
COc1cccc2c1CN(CC(=O)N1c3ccccc3OCC1C)CC2 (centres unmarked) [Compound 205, 2-(8-Methoxy-3,4-dihydro-1H-isoquinolin-2-yl)-1-(3-methyl-2,3-dihydro-benzo[1,4]oxazin-4-yl)-ethanone]	4630
O=C(CN1CCc2cc(O)ccc2C1)N1c2ccccc2Oc2ccccc21 [Compound 194, 2-(6-Hydroxy-3,4-dihydro-1H-isoquinolin-2-yl)-1-phenoxazin-10-yl-ethanone]	2890
COc1cccc2c1CN(CC(=O)N1c3ccccc3OCC1c1ccccc1)CC2 (centres unmarked) [Compound 71, 2-(8-methoxy-3,4-dihydro-1H-isoquinolin-2-yl)-1-(3-phenyl-2,3-dihydro-benzo[1,4]oxazin-4-yl)-ethanone]	2180
Nc1cccc2c1CN(CC(=O)N1c3ccccc3Oc3ccccc31)CC2 [Compound 175, 2-(8-Amino-3,4-dihydro-1H-isoquinolin-2-yl)-1-phenoxazin-10-yl-ethanone]	1530
CCC1COc2ccccc2N1C(=O)CN1CCc2cccc(OC)c2C1 (centres unmarked) [Compound 208, 1-(3-Ethyl-2,3-dihydro-benzo[1,4]oxazin-4-yl)-2-(8-methoxy-3,4-dihydro-1H-isoquinolin-2-yl)-ethanone]	1680
COc1ccc(N(C(=O)CN2CCc3cccc(O)c3C2)c2ccc(OC)cc2)cc1 [Compound 183, 2-(8-Hydroxy-3,4-dihydro-1H-isoquinolin-2-yl)-N,N-bis-(4-methoxy-phenyl)-acetamide]	2260
COc1cccc2c1CN(CCNC(=O)N1c3ccccc3Oc3ccccc31)CC2 [Compound 164, Phenoxazine-10-carboxylic acid [2-(8-methoxy-3,4-dihydro-1H-isoquinolin-2-yl)-ethyl]-amide]	710
CC(C)(C)C1COc2ccccc2N1C(=O)CN1CCc2cccc(O)c2C1 (centres unmarked) [Compound 211, 1-(3-tert-Butyl-2,3-dihydro-benzo[1,4]oxazin-4-yl)-2-(8-hydroxy-3,4-dihydro-1H-isoquinolin-2-yl)-ethanone]	3030
